{"source": "patent US20240409602A1", "about": "“PEPTIDE MODULATORS OF NEUROLIGIN 4-NEUREXIN 1-BETA AXIS FOR TREATMENT OF LIVER DISORDERS” (HADASIT MEDICAL RESEARCH SERVICES AND DEVELOPMENT LTD., priority 2022, published 2024)", "key": {"[1]": {"test_system": "NK cells", "assay": "NK cell activation (CD107a) in monoculture, flow cytometry", "format": "cell-based, human", "from_the_text": "(§1) Inhibitory Peptide synthesis: inhibitory peptide 1: MEQGEFLNYD (SEQ ID NO: 1), inhibitory peptide 2: QILMEQGEFLNYDIM (SEQ ID NO: 2), inhibitory peptide 3: […] (SEQ ID NO: 3), and a control peptide having a scrambled sequence: LEGEDQNFYM (SEQ ID NO: 7) were synthesized by Pepscan Ltd. at a purity of 98.3%.\n(§2) Cells: primary NK cells were isolated from patients having advanced fibrosis, human hepatic stellate cells (LX2) were commercially purchased.\nMonoculture conditions: peptides were supplemented to media of cultured NK cells for 6 h stimulation.\n(§3) Fluorescence-activated cell sorting (FACS): Staining colors of antibodies was as follows: αSMA>PE, CD107>FITC, CD56>. After analysis using LSR Fortessa analyzer, raw data was transferred to analysis program FCS Express v7.0.\nThree peptides potentially having an inhibitory effect on NLGn4-Nrx1β PPI were generated. The three peptides (peptide 1, peptide 2, and peptide 3) consist of different amino acid sequences (SEQ ID NO: 1, SEQ ID NO: 2, and SEQ ID NO: 3, respectively) that vary in length, all derived from the same binding site for the NLGn4X ligand β-neurexin. The active binding site includes a domain containing the amino acids 359-364 in NLGn4X and the epitopes critical for binding are E361, L363, H267, Y463, and E270.\nInitially, peptides were screened for their effect on the activity of NK cells, which was evaluated by measuring the levels of CD107a activation marker. Monocultures of NK cells were stimulated with increasing concentrations of the potentially inhibitory NLGn4-Nrx1β PPI peptides (FIG. 1 and FIGS. 2A-B)."}, "[2]": {"test_system": "LX2 cells", "assay": "αSMA in LX2 cells co-cultured with peptide pre-activated NK cells, flow cytometry", "format": "cell-based, human", "protocol": "as §2\nCo-culture conditions: co-cultures conditions—peptides were supplemented to media of cultured NK cells for 6 h stimulation followed by a wash, trypsinization, and coculturing on LX2 cells for an additional 24 h.\nas §3\nTo test if NLGn4-Nrx1β PPI inhibitory peptides mediated deactivation of LX2 cells is more prominent in the presence of NK cells, a co-culture setting was established for LX2 cells in the presence or absence of activated NK cells (FIGS. 4A-C).\nIn this setting, NK cells were stimulated with increasing concentrations of NLGn4-Nrx1βPPI inhibitory peptides before co-culturing them with LX2 cells, to examine whether pre-activation makes them more functional in deactivating LX2 cells."}, "[3]": {"test_system": "LX2 cells", "assay": "LX2 cell activity (αSMA) in monoculture, flow cytometry", "format": "cell-based, human", "conditions": "monoculture, 2000, 4000, 8000 ng/ml (peptide 3: 2000 or 4000 ng/ml), vs untreated", "from_the_text": "as §1, §2, §3\nFollowing that, the NLGn4-Nrx1β PPI peptides were screened for their effect on the activity of LX2 cells, which was evaluated by measuring the levels of αSMA activation marker. Monocultures of LX2 cells were stimulated with increasing concentrations of the NLGn4-Nrx1βPPI peptides (FIGS. 3A-C)."}, "[4]": {"test_system": "liver NK cells", "assay": "F-actin expression in liver NK cells (western blot, immunofluorescence) in CCl4 model", "format": "in vivo, mice", "conditions": "immune-stained liver tissue, confocal microscopy", "protocol": "Animal model: 40 WT naïve C57BL/6J male mice (12 weeks) were either induced for acute hepatic fibrosis by i.p injections of 0.5 μl pure carbon tetrachloride CCl4/g body weight (one to nine dilution in mineral oil) (CCl4; Sigma, C-5331) 3×/week for four weeks as an advanced model of hepatic fibrosis, or left untreated (induced n=32, control n=8 per experiment). NLGn4-Nrx1β PPI modulator peptide 1 was i.p injected to CCl4 induced mice as preventive doses from the beginning of the model starting at 1st week of CCl4 at a concentration of 5 and 10 mg/mice 3×/week for four weeks (5 mg/mice n=8, 10 mg/mice n=8). […] Food and water intake were recorded every week. […]\nWestern blot analysis: Liver protein extracts were homogenized with buffer (50 mmol/L Tris-HCl [pH 7.61, 0.25% Triton-X 100, 0.15 M NaCl, 10 mM CaCl2) and complete mini EDTA-free protease inhibitor cocktail (Roche Diagnostics, Mannheim, Germany). […] Immunoreactivity was detected using an ECL kit (Abcam).\nImmunofluorescence staining: For deparaffinization, paraffin-embedded sections were placed at 60° C. for 15 minutes, incubated in xylene at room temperature for 15 minutes, and then transferred sequentially to 100% EtOH, 95% EtOH, 70% EtOH, and 50% EtOH for four minutes each at room temperature. […] An argon laser (488 nm excitation) was used to detect green fluorescence, and an Alexa Fluor laser (552 nm) to detect red fluorescence. […]"}, "[5]": {"test_system": "β-neurexin", "assay": "β-neurexin expression in liver by RT-PCR in CCl4 model", "format": "in vivo", "conditions": "relative to naïve mice, 5 or 10 mg/mice i.p. 3×/week for 4 weeks"}, "[6]": {"test_system": "CCl4-induced mice (acute hepatic fibrosis model)", "assay": "Serum ALT by ELISA in CCl4 model", "format": "in vivo", "conditions": "5 or 10 mg/mice i.p. 3×/week for 4 weeks", "protocol": "(§4) Animal model: 40 WT naïve C57BL/6J male mice (12 weeks) were either induced for acute hepatic fibrosis by i.p injections of 0.5 μl pure carbon tetrachloride CCl4/g body weight (one to nine dilution in mineral oil) (CCl4; Sigma, C-5331) 3×/week for four weeks as an advanced model of hepatic fibrosis, or left untreated (induced n=32, control n=8 per experiment). NLGn4-Nrx1β PPI modulator peptide 1 was i.p injected to CCl4 induced mice as preventive doses from the beginning of the model starting at 1st week of CCl4 at a concentration of 5 and 10 mg/mice 3×/week for four weeks (5 mg/mice n=8, 10 mg/mice n=8). A scrambled peptide was also i.p injected to CCl4 induced mice (5 mg/mice n=8, 10 mg/mice n=8). Food and water intake were recorded every week. Mice were sacrificed two days after the final CCl4 injection. To this end, the animals were weighed and anesthetized with inhaled 5% isoflurane for 10 seconds before cervical dislocation.\n(§5) Histological and biochemical assessment of mice livers: The posterior one-third of the liver was fixed in 4% formalin for 24 hours and then paraffin-embedded in an automated tissue processor. […] Serum ALT concentrations were determined using ELISA. […]"}, "[7]": {"test_system": "CCl4-induced mice (acute hepatic fibrosis model)", "assay": "Liver histology (H&E, Sirius Red, Masson's trichrome) in CCl4 model", "format": "in vivo", "conditions": "5 or 10 mg/mice i.p. 3×/week for 4 weeks", "protocol": "as §4, §5"}, "[8]": {"test_system": "Hep3B cells", "assay": "Cell cycle analysis of Hep3B cells by flow cytometry, PI staining", "format": "cell-based, human", "conditions": "8000 ng/ml", "protocol": "Cell cycle analysis by Flow cytometry: evaluation of cell cycle stage of Hep3B HCC cells, was performed according to a standard protocol, using Propidium-Iodide (PI)-staining of nuclei. To […] attenuation of the proliferative capabilities of HCC cells following modulation by peptide 1, the stage of the cell cycle of Hep3B cells treated with 8000 ng/ml peptide 1 or with a control peptide having a scrambled sequence was evaluate using flow cytometry and Propidium Iodide (PI)-staining."}, "[9]": {"biological_target": "neurexin 1β (Nrx1β) expressed on Hep3B hepatocellular carcinoma cells (human, UniProt Q9ULB1-3 31-1547)", "sequence (Q9ULB1 other isoform, or with tags, fused parts or gaps limits assumed)": "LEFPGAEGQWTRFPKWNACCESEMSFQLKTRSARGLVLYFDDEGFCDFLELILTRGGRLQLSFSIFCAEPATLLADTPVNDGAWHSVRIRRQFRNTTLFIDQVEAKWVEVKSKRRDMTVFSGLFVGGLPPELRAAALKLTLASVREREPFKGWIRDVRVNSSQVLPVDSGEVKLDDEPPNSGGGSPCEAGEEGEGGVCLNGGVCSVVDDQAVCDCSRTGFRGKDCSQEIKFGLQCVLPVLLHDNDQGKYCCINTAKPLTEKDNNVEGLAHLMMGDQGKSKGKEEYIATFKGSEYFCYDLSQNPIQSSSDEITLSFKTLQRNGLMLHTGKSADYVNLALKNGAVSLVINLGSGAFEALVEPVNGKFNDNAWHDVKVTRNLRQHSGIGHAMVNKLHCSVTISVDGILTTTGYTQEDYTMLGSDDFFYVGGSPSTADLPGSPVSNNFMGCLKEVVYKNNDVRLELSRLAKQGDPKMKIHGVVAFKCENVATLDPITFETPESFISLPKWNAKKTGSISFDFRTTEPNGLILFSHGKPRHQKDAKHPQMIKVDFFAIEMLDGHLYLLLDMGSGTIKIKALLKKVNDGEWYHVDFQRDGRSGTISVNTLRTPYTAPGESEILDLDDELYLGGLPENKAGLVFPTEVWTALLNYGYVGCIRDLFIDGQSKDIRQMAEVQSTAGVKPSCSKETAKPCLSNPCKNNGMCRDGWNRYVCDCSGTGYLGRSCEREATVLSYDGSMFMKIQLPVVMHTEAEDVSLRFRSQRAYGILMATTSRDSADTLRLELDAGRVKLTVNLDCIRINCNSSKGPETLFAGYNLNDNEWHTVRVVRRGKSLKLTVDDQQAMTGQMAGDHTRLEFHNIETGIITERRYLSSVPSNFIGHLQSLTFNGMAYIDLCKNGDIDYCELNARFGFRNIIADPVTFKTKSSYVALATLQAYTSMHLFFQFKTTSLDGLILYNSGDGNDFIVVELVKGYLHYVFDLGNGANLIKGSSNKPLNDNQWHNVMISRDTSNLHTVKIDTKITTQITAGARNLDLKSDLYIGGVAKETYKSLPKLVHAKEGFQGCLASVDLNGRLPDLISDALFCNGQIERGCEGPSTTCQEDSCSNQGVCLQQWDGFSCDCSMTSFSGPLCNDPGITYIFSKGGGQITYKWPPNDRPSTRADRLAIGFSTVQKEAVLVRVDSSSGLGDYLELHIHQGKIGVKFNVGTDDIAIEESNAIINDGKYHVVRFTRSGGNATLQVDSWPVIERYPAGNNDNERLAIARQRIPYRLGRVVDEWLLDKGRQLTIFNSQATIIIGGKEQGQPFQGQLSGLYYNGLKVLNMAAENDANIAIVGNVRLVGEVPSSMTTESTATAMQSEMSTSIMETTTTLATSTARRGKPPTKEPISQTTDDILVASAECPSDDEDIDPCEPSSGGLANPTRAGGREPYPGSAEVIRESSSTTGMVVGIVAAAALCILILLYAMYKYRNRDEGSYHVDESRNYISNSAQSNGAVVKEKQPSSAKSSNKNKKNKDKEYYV", "assay": "cell-based or functional assay"}}, "note": "No end group written: not given here.", "data": [{"molecule": "DPQILMEQGEFLNYDIMLGV [peptide 3]", "values": [{"measurement": "toxicity to NK cells", "setting": "[1]; inferred from CD107a decrease at higher peptide concentrations", "result": "may be toxic to the cells"}]}, {"molecule": "QILMEQGEFLNYDIM [peptide 2]", "values": [{"measurement": "activity of NK cells (levels of CD107a)", "setting": "[1]; monoculture, 6 h stimulation, 2000, 4000, 8000 ng/ml (peptide 3: 2000 or 4000 ng/ml), vs untreated", "result": "elevated the activity of the cells"}, {"measurement": "dose dependence of effect on NK cell activity (CD107a)", "setting": "[1]; monoculture, increasing concentrations 2000-8000 ng/ml", "result": "not dose-dependent"}, {"measurement": "dose dependence of effect in co-culture (αSMA)", "setting": "[2]; NK cells pre-activated with increasing concentrations", "result": "not dose-dependent"}, {"measurement": "activity of LX2 cells (levels of αSMA) in co-culture with pre-activated NK cells", "setting": "[2]; NK cells pre-stimulated 6 h with 2000-8000 ng/ml peptide, co-culture 24 h", "result": "downregulated the activity of the LX2 cells"}, {"measurement": "activity of LX2 cells (levels of αSMA)", "setting": "[3]", "result": "deactivation of the cells"}]}, {"molecule": "LEGEDQNFYM [scrambled peptide]", "values": [{"measurement": "F-actin inside NK cells, co-localization with NKP46 (immunofluorescence)", "setting": "[4]", "result": "not seen inside NK cells"}, {"measurement": "levels of β-neurexin in liver", "setting": "[5]", "result": "elevated levels of β-neurexin"}, {"measurement": "levels of serum ALT", "setting": "[6]", "result": "significant increase in ALT levels"}, {"measurement": "collagen deposition / fibrous dense tissue (Sirius Red staining)", "setting": "[7]", "result": "increased collagen deposition in perisinusoidal areas"}, {"measurement": "percentage of cells existing at a state of G1", "setting": "[8]", "result": 38, "unit": "%"}, {"measurement": "percentage of cells existing at a state of G2-M phase", "setting": "[8]", "result": 25, "unit": "%"}, {"measurement": "percentage of cells existing at a state of S-phase", "setting": "[8]", "result": 11, "unit": "%"}]}, {"molecule": "MEQGEFLNYD", "note": "[NLGn4-Nrx1β PPI inhibitory peptide 1]", "values": [{"measurement": "apoptotic marker phosphatidylserine (Annexin-V+/PI-) in Hep3B cells (flow cytometry), peptide 1 against scrambled control peptide", "setting": "[9]", "result": 3, "unit": "fold increase"}, {"measurement": "expression of PDGFRA and MKI67 proliferation markers in Hep3B cells (flow cytometry), peptide 1 against scrambled control peptide", "setting": "[9]", "result": "~2", "unit": "fold reduction"}, {"measurement": "expression of the necrotic marker CDNK2A in Hep3B cells (flow cytometry), peptide 1 against scrambled control peptide", "setting": "[9]", "result": 2, "unit": "fold reduction"}, {"measurement": "percentage of Hep3B cells in G1 phase (PI staining, flow cytometry), 8000 ng/ml peptide 1 against scrambled control peptide", "setting": "[9]", "result": "~2", "unit": "fold increase"}, {"measurement": "percentage of Hep3B cells in G2-M phase (PI staining, flow cytometry), 8000 ng/ml peptide 1 against scrambled control peptide", "setting": "[9]", "result": 2.5, "unit": "fold decrease"}, {"measurement": "percentage of Hep3B cells in S-phase (PI staining, flow cytometry), 8000 ng/ml peptide 1 against scrambled control peptide", "setting": "[9]", "result": "~2", "unit": "fold decrease"}, {"measurement": "phosphorylated AKT/mTOR/P70S6K in Hep3B cells (flow cytometry), peptide 1 against scrambled control peptide", "setting": "[9]", "result": 2, "unit": "fold reduction"}]}]}
